Where two headings read alike, the source gives them in different places.
How the values were obtained:
Type in all cases: cell-based
[1] = system: E. cloacae; assay: MIC by serial two-fold agar dilution (Mueller-Hinton agar), E. cloacae; conditions: Enterobacter cloacae, Table 1
Procedure: (§1) Minimum inhibitory concentrations (MIC) of BB-S520 were determined by serial two-fold agar dilution method using Steers' apparatus on Meuller-Hinton agar plate against 31 test organisms for the primary screening and also against 61 strains of Pseudomonas aeruginosa for the secondary evaluation. The results are shown in Table 1 and Table 2 along with those of BB-S514 and sulbenicillin.
(§2) Minimum inhibitory concentrations (MIC) of cephalosporins in the present study were determined by serial two-fold agar dilution method using Steers' apparatus on Mueller-Hinton agar plate against 31 test organisms for the primary screening and also against 61 strains of Pseudomonas aeruginosa for the secondary evaluation.

[2] = system: S. enteritidis; assay: MIC by serial two-fold agar dilution (Mueller-Hinton agar), S. enteritidis; conditions: Salmonella enterica; S. enteritidis, Table 1; read-out: MIC
Procedure: as §1, §2

[3] = system: Gram-positive (6 strains); assay: Mean % relative activity (MIC) vs sulbenicillin, Gram-positive (6 strains); conditions: for Mean % Relative Activity (SPBC = 100%): G (+) (6 strains)
Procedure: as §1, §2

[4] = system: Pseudomonas aeruginosa; assay: MIC by agar dilution against 61 strains of Pseudomonas aeruginosa, secondary evaluation; conditions: for Mean % Relative Activity (SPBC = 100%): P. aerug. (61 strains); for MIC: Pseudomonas aeruginosa
Procedure: as §1, §2

NC(=O)OCC1=C(C(=O)O)N2C(=O)C(NC(=O)[C@H](NC(=O)c3cnc4cccnc4c3O)c3ccccc3)[C@H]2SC1 (stereo partly drawn) [BB-S520, Sodium 7-[D-α-(4-hydroxy-1,5-naphthyridine-3-carboxamido)-α-phenylacetamido]-3-carbamoyloxymethyl-3-cephem-4-carboxylate]
1.6 µg/mL: MIC ([4]; BBRI Pa-No. 3, 1449VA, Table 2, read-out: MIC) | MIC ([4]; BBRI Pa-No. 4, H9 D113, Table 7, read-out: MIC) | MIC ([4]; BBRI Pa-No. 9, Yale, Table 7, read-out: MIC) | MIC ([4]; BBRI Pa-No. 18, H8 D121, Table 7, read-out: MIC) | MIC ([4]; BBRI Pa-No. 19, Table 2, read-out: MIC) | MIC ([4]; BBRI Pa-No. 23, Table 7, read-out: MIC) | MIC ([4]; BBRI Pa-No. 25, Table 2, read-out: MIC) | MIC ([4]; BBRI Pa-No. 29, D122, Table 2, read-out: MIC) | MIC ([4]; BBRI Pa-No. 29, D122, Table 7, read-out: MIC) | MIC ([4]; BBRI Pa-No. 30, Table 7, read-out: MIC) | MIC ([4]; BBRI Pa-No. 31, Table 2, read-out: MIC) | MIC ([4]; BBRI Pa-No. 32, Table 7, read-out: MIC) | MIC ([4]; BBRI Pa-No. 33, Table 7, read-out: MIC)
12.5 µg/mL: MIC ([1]; E. cloacae (1st line)) | MIC ([4]; BBRI Pa-No. 1, D15, Table 2, read-out: MIC) | MIC ([4]; BBRI Pa-No. 4, H9 D113, Table 2, read-out: MIC) | MIC ([4]; BBRI Pa-No. 6, No. 5, Table 7, read-out: MIC) | MIC ([4]; BBRI Pa-No. 15, Table 2, read-out: MIC) | MIC ([4]; BBRI Pa-No. 33, Table 2, read-out: MIC)
2.4 µg/mL: MIC ([4]; 61 strains of Pseudomonas aeruginosa, Table 7, read-out: Geometric Mean of MIC)
141%: Mean % Relative Activity (SPBC = 100%) ([3]; lot 2, Table 5)
0.4 µg/mL: MIC ([4]; BBRI Pa-No. 16, No. 130, Table 7, read-out: MIC)
200%: Mean % Relative Activity (SPBC = 100%) ([3]; lot 1, Table 5) | Mean % Relative Activity (Sulbenicillin = 100%) ([3]; Gram-positive (6 strains), from geometric means of MICs in Table 1)
6.3 µg/mL: MIC ([4]; BBRI Pa-No. 1, D15, Table 7, read-out: MIC) | MIC ([4]; BBRI Pa-No. 7, Table 2, read-out: MIC) | MIC ([4]; BBRI Pa-No. 12, Table 2, read-out: MIC) | MIC ([4]; BBRI Pa-No. 15, Table 7, read-out: MIC) | MIC ([4]; BBRI Pa-No. 17, H6 D114, Table 2, read-out: MIC) | MIC ([4]; BBRI Pa-No. 18, H8 D121, Table 2, read-out: MIC) | MIC ([4]; BBRI Pa-No. 23, Table 2, read-out: MIC) | MIC ([4]; BBRI Pa-No. 26, Ps32, Table 7, read-out: MIC) | MIC ([4]; BBRI Pa-No. 28, CPH10527/72, Table 2, read-out: MIC)
1016%: Rel. Act. (SBPC=100%) ([4]; 61 strains of Pseudomonas aeruginosa, Table 7) | Mean % Relative Activity (SPBC = 100%) ([4]; lot 2, Table 5)
0.8 µg/mL: MIC ([4]; BBRI Pa-No. 3, 1449VA, Table 7, read-out: MIC) | MIC ([4]; BBRI Pa-No. 5, N4865KC, Table 7, read-out: MIC) | MIC ([4]; BBRI Pa-No. 14, Table 7, read-out: MIC) | MIC ([4]; BBRI Pa-No. 16, No. 130, Table 2, read-out: MIC) | MIC ([4]; BBRI Pa-No. 19, Table 7, read-out: MIC) | MIC ([4]; BBRI Pa-No. 25, Table 7, read-out: MIC) | MIC ([4]; BBRI Pa-No. 31, Table 7, read-out: MIC)
714%: Mean % Relative Activity (SPBC = 100%) ([4]; lot 1, Table 5) | Mean % Relative Activity (Sulbenicillin = 100%) ([4]; Ps. aeruginosa (61 strains), from geometric means of MICs in Table 2)
25 µg/mL: MIC ([1]; E. cloacae (3rd line)) | MIC ([4]; BBRI Pa-No. 6, No. 5, Table 2, read-out: MIC) | MIC ([4]; BBRI Pa-No. 10, Table 7, read-out: MIC) | MIC ([4]; BBRI Pa-No. 24, Table 7, read-out: MIC)
50 µg/mL: MIC ([1]; E. cloacae (2nd line)) | MIC ([4]; BBRI Pa-No. 10, Table 2, read-out: MIC) | MIC ([4]; BBRI Pa-No. 24, Table 2, read-out: MIC)
3.1 µg/mL: MIC [2] | MIC ([4]; BBRI Pa-No. 2, VA, Table 2, read-out: MIC) | MIC ([4]; BBRI Pa-No. 2, VA, Table 7, read-out: MIC) | MIC ([4]; BBRI Pa-No. 5, M4865KC, Table 2, read-out: MIC) | MIC ([4]; BBRI Pa-No. 7, Table 7, read-out: MIC) | MIC ([4]; BBRI Pa-No. 8, Table 2, read-out: MIC) | MIC ([4]; BBRI Pa-No. 8, Table 7, read-out: MIC) | MIC ([4]; BBRI Pa-No. 9, Yale, Table 2, read-out: MIC) | MIC ([4]; BBRI Pa-No. 11, Table 2, read-out: MIC) | MIC ([4]; BBRI Pa-No. 11, Table 7, read-out: MIC) | MIC ([4]; BBRI Pa-No. 12, Table 7, read-out: MIC) | MIC ([4]; BBRI Pa-No. 14, Table 2, read-out: MIC) | MIC ([4]; BBRI Pa-No. 17, H6 D114, Table 7, read-out: MIC) | MIC ([4]; BBRI Pa-No. 20, Table 2, read-out: MIC) | MIC ([4]; BBRI Pa-No. 20, Table 7, read-out: MIC) | MIC ([4]; BBRI Pa-No. 21, Table 2, read-out: MIC) | MIC ([4]; BBRI Pa-No. 21, Table 7, read-out: MIC) | MIC ([4]; BBRI Pa-No. 26, Ps32, Table 2, read-out: MIC) | MIC ([4]; BBRI Pa-No. 28, CPH1C527/72, Table 7, read-out: MIC) | MIC ([4]; BBRI Pa-No. 30, Table 2, read-out: MIC) | MIC ([4]; BBRI Pa-No. 32, Table 2, read-out: MIC)

Source: patent US4138554A, “7-[D-α-(4-Hydroxy-1,5-naphthyridine-3-carboxamido)-α-phenyl (and p-hydroxyphenyl)acetamido]-3-carbamoyloxymethyl-3-cephem-4-carboxylic acids” (priority 1977, dated 1979)
